The text below walks through data of US9745328B2, “Flap modulators” (JANSSEN PHARMACEUTICA NV, priority 2013, dated 2017).

pKi: −log10 of the molar value. Where a name gives a salt, the structure may show the parent alone. Where only a bound is given, the exact number is not on record here.

human FLAP, sequence (P20292 whole entry): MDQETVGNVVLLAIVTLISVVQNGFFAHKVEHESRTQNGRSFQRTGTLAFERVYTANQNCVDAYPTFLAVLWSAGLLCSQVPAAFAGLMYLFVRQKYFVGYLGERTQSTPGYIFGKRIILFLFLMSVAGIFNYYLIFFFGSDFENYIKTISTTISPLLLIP

For the first assay, the target named is human FLAP (Homo sapiens (Human), UniProt P20292). Briefly: FLAP binding assay (HTRF format). To be noted: Table 6 (additional runs), human FLAP wild type. In short, it runs like this:
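HTRF ratio read-out; two independent plates, samples in duplicate on each, values averaged across plates.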
In general, pKi refers to the negative decadic logarithm of the Ki, by convention in mol/L. `Nc1cnc(-c2ccc(-c3ccccc3S(=O)(=O)N3CCC(F)(F)C3)cc2F)cn1` [Example 51, 5-{2′-[(3,3-Difluoropyrrolidin-1-yl)sulfonyl]-3-fluorobiphenyl-4-yl}pyrazin-2-amine] showed a negative logarithm of the Ki (pKi) of 8.42.

As for `CC(C)(C)OC(=O)N1CC(O)(CNS(=O)(=O)c2ccccc2-c2ccc(-c3ccc(N)nc3)c(F)c2)C1` [Example 357, tert-butyl 3-((4′-(6-aminopyridin-3-yl)-3′-fluoro-[1,1′-biphenyl]-2-ylsulfonamido)methyl)-3-hydroxyazetidine-1-carboxylate], the pKi is 6.94. Regarding `NC1CCN(S(=O)(=O)c2ccccc2-c2ccc(-c3cnc4c(c3)OCCN4)c(F)c2)CC1` [Example 389, 1-{[4′-(3,4-Dihydro-2H-pyrido[3,2-b][1,4]oxazin-7-yl)-3′-fluorobiphenyl-2-yl]sulfonyl}piperidin-4-amine], the pKi was 7.88. Take `Nc1cnc(-c2ccc(-c3ccccc3N)cc2F)cn1` [Example 178, 5-(2′-Amino-3-fluorobiphenyl-4-yl)pyrazin-2-amine]: the negative-log Ki (pKi) was approximately 5.88.

For the compound `Nc1cnc(-c2ccc(-c3ccccc3S(=O)(=O)NC3CCCC3)cc2F)cn1` [Example 14, 4′-(5-Aminopyrazin-2-yl)-N-cyclopentyl-3′-fluorobiphenyl-2-sulfonamide], the pKi is 8.46. As for `CC(C)(NS(=O)(=O)c1ccccc1-c1ccc(-c2ccc(N)nc2)c(F)c1)C(F)(F)F` [Example 350, 4′-(6-aminopyridin-3-yl)-3′-fluoro-N-(1,1,1-trifluoro-2-methylpropan-2-yl)-[1,1′-biphenyl]-2-sulfonamide], the pKi was 8.62. `CCN(CC)S(=O)(=O)c1ccccc1-c1ccc(-c2cnc(N)cn2)c(F)c1` [Example 47, 4′-(5-Aminopyrazin-2-yl)-N,N-diethyl-3′-fluorobiphenyl-2-sulfonamide]: the negative-log Ki (pKi) is 8.80. With `C[C@H](NS(=O)(=O)c1ccccc1-c1ccc(-c2cnc(N)nc2)c(F)c1)C(=O)OC(C)(C)C` [Example 307, tert-Butyl N-{[4′-(2-aminopyrimidin-5-yl)-3′-fluorobiphenyl-2-yl]sulfonyl}-L-alaninate], the pKi is 8.35.

`NS(=O)(=O)c1ccccc1-c1ccc(-c2cnc3[nH]ccc3c2)c(F)c1` [Example 368, 3′-Fluoro-4′-(1H-pyrrolo[2,3-b]pyridin 5-yl)biphenyl-2-sulfonamide]: the pKi is 7.88.

Take `Nc1ncc(-c2ccc(-c3ccccc3S(=O)(=O)N3CCN(C4CC4)CC3)cc2F)cn1` [Example 281, 5-{2′-[(4-Cyclopropylpiperazin-1-yl)sulfonyl]-3-fluorobiphenyl-4-yl}pyrimidin-2-amine trifluoroacetic acid salt]: the pKi is 7.22. On to `Nc1cnc(-c2ccc(-c3ccccc3S(=O)(=O)Nc3ccccc3)cc2F)cn1` [Example 26, 4′-(5-Aminopyrazin-2-yl)-3′-fluoro-N-phenylbiphenyl-2-sulfonamide], for which the negative logarithm of the Ki (pKi) is 9.05. On to `CC(C)(C)NS(=O)(=O)c1ccccc1-c1ccc(-c2cnc3[nH]ccc3n2)c(F)c1` [Example 371, N-tert-Butyl-3′-fluoro-4′-(5H-pyrrolo[2,3-b]pyrazin-2-yl)biphenyl-2-sulfonamide], for which the pKi is 9.15.

`Nc1cnc(-c2ccc(-c3ccccc3NS(=O)(=O)N3CCCC3)cc2F)cn1` [Example 181, N-[4′-(5-Aminopyrazin-2-yl)-3′-fluorobiphenyl-2-yl]pyrroildine-1-sulfonamide]: the pKi was 8.17. `Nc1cnc(-c2ccc(-c3ccccc3S(=O)(=O)N3CCN(c4cnccn4)CC3)cc2F)cn1` [Example 176, 5-{3-Fluoro-2′-[(4-pyrazin-2-ylpiperazin-1-yl)sulfonyl]biphenyl-4-yl}pyrazin-2-amine]: the negative-log Ki (pKi) is 9.30.

Turning to `Nc1cnc(-c2ccc(-c3ccccc3S(=O)(=O)NC3Cc4ccccc4C3)cc2F)cn1` [Example 21, 4′-(5-Aminopyrazin-2-yl)-N-(2,3-dihydro-1H-inden-2-yl)-3′-fluorobiphenyl-2-sulfonamide], the negative logarithm of the Ki (pKi) is 8.68. The compound `Nc1ncc(-c2ccc(-c3ccccc3S(=O)(=O)Cc3nc(C4CC4)no3)cc2F)cn1` [Example 321, 5-(2′-{[(3-Cyclopropyl-1,2,4-oxadiazol-5-yl)methyl]sulfonyl}-3-fluorobiphenyl-4-yl)pyrimidin-2-amine] showed a pKi of 6.30.

For `Nc1cnc(-c2ccc(-c3ccccc3S(=O)(=O)NC3(CO)CCCC3)cc2F)cn1` [Example 179], the pKi was 9.40. On to `CS(=O)(=O)NS(=O)(=O)c1ccccc1-c1ccc(-c2cnc(N)cn2)c(F)c1` [Example 96, 4′-(5-Aminopyrazin-2-yl)-3′-fluoro-N-(methylsulfonyl)biphenyl-2-sulfonamide], for which the pKi is 6.45. `Nc1ncc(-c2ccc(-c3ccccc3S(=O)(=O)N3CC(O)(C(F)(F)F)C3)cc2F)cn1` [Example 315] gave a pKi of 8.89. For `C[C@@H](O)CNS(=O)(=O)c1ccccc1-c1ccc(-c2cnc(N)cn2)c(F)c1` [Example 97, (R)-4′-(5-aminopyrazin-2-yl)-3′-fluoro-N-(2-hydroxypropyl)-[1,1′-biphenyl]-2-sulfonamide], the pKi was 8.18.

`Nc1cnc(-c2ccc(-c3ccccc3CSc3ccc(N)nn3)cc2F)cn1` [Example 240, 6-(((4′-(5-aminopyrazin-2-yl)-3′-fluoro-[1,1′-biphenyl]-2-yl)methyl)thio)pyridazin-3-amine hydrochloride] showed a pKi of 8.62. In the case of `Nc1cnc(-c2ccc(-c3ccccc3S(=O)(=O)N[C@@H]3c4ccccc4C[C@@H]3O)cc2F)cn1` [Example 161, 4′-(5-aminopyrazin-2-yl)-3′-fluoro-N-((1R,2S)-2-hydroxy-2,3-dihydro-1H-inden-1-yl)-[1,1′-biphenyl]-2-sulfonamide], the negative-log Ki (pKi) is 9.40.

Still in this assay, the particulars now being: human FLAP wild type, Table 6 (additional runs).
In the case of `CC(C)(C)NS(=O)(=O)c1ccccc1-c1ccc(-c2cnc3ncccc3c2)c(F)c1` [Example 419, N-tert-Butyl-3′-fluoro-4′-(1,8-naphthyridin-3-yl)biphenyl-2-sulfonamide], the pKi is approximately 5.86.

For `C[C@H]1COCCN1C(=O)c1ccccc1-c1ccc(-c2cnc(N)cn2)c(F)c1` [Example 774, 5-(3-Fluoro-2′-{[(3S)-3-methylmorpholin-4-yl]carbonyl}biphenyl-4-yl)pyrazin-2-amine], the negative logarithm of the Ki (pKi) was 5.89. In turn, `Nc1cc(Oc2cc(C(F)(F)F)ccc2-c2ccc(-c3cnc(N)nc3)c(F)c2)ncn1` [Example 561, 5-{2′-[(6-Aminopyrimidin-4-yl)oxy]-3-fluoro-4′-(trifluoromethyl)biphenyl-4-yl}pyrimidin-2-amine] showed a pKi of 8.36.

`CC(C)(C)NS(=O)(=O)c1ccccc1-c1ccc(-c2cnc(N)cn2)cc1` [Example 571, 4′-(5-Aminopyrazin-2-yl)-N-tert-butylbiphenyl-2-sulfonamide] had a pKi of 8.77. For `Nc1cnc(-c2ccc(-c3ccccc3Oc3cc(N4CCC4)ncn3)cc2F)cn1` [Example 539, 5-{2′-[(6-Azetidin-1-ylpyrimidin-4-yl)oxy]-3-fluorobiphenyl-4-yl}pyrazin-2-amine], the pKi is 8.80.

The assay is the same for the next values; noted with them: human FLAP wild type, a calculated value of 0.000 indicates Ki less than 1 nM.
For `Nc1cnc(-c2ccc(-c3ccccc3S(=O)(=O)N3CCN(c4cnccn4)CC3)cc2F)cn1` [Example 176, 5-{3-Fluoro-2′-[(4-pyrazin-2-ylpiperazin-1-yl)sulfonyl]biphenyl-4-yl}pyrazin-2-amine], the negative logarithm of the Ki (pKi) is more than 9.00. Turning to `Nc1cnc(-c2ccc(-c3ccccc3S(=O)(=O)NC3(CO)CCCC3)cc2F)cn1` [Example 179], the negative logarithm of the Ki (pKi) is more than 9.00. Turning to `Nc1cnc(-c2ccc(-c3ccccc3S(=O)(=O)N[C@@H]3c4ccccc4C[C@@H]3O)cc2F)cn1` [Example 161, 4′-(5-aminopyrazin-2-yl)-3′-fluoro-N-((1R,2S)-2-hydroxy-2,3-dihydro-1H-inden-1-yl)-[1,1′-biphenyl]-2-sulfonamide], the negative-log Ki (pKi) is more than 9.00.
